“And” between values parts separate entries of the source, which are not always exact repeats. Equal entries are not always repeated. Where two headings read alike, the source gives them in different places.
Experiments:
[1] = Stability of (7aS,2′S)-2-oxo-clopidogrel in plasma containing the reducing agent (Example 8); type: in vitro ADME, human; conditions: plasma with reducing agent; for Measured concentration: single replicates
Experimental: S1. Whole blood treatment: taking 3 ml of human whole blood anticoagulated with EDTA-K2 after oral administration of (7aS,2′S)-2-oxo-clopidogrel, cooling to 4° C. on ice, then adding thereto 60 μl of tris(2-carboxyethyl) phosphine at 100 mg/ml; shaking well and then centrifuging (2-8° C., 3000 rpm for 10 min), and collecting plasma for later use.
(§1) S2. Plasma sample pre-treatment: taking 100 μl of the plasma, adding 5 μl of an internal standard working solution and 300 μl of acetonitrile respectively; after vortex mixing, centrifuging at 2-8° C. and 10,000 r/min for 10 min, and collecting the supernatant for later use.
(§2) S3. LC-MS/MS analysis: injecting 10 μl of the supernatant prepared from step S2 for determination, where the liquid chromatography conditions are: • the chromatographic column is Kinetex® 1.7 μm C18 100 A 100×2.1 mm; the column temperature is 40° C.; the mobile phase is acetonitrile-0.2% aqueous formic acid solution with a flow rate of 0.2 ml/min; and a gradient elution is carried out as specified in the table below:
(§3) ESI ion source, positive ion detection in multiple reaction monitoring mode (MRM); the quantitatively analyzed ions (7aS,2′S)-2-oxo-clopidogrel: m/z 338.100→155.000, IS: m/z 341.100→158.000, a capillary voltage of 4.0 KV, a cone voltage of 25 V, a desolvation gas temperature of 400° C. and a source temperature of 150° C. The optimal collision energy is 20 eV.
Blank plasma was taken and operated according to S1 of Example 1 to obtain a blank plasma containing the reducing agent. Subsequently, a standard series solution of (7aS,2′S)-2-oxo-clopidogrel was added to prepare quality control samples containing (7aS,2′S)-2-oxo-clopidogrel at concentrations of 0.1 and 12 ng/ml. The plasma samples were examined for stability after ice box short-term placement, stability after room temperature short-term placement, stability after freeze-thaw cycle and stability after long-term cryopreservation.
The plasma samples at different placing time points were taken to examine the stability by pre-treating the plasma samples according to the method of S2 of Example 1, followed by LC/MS/MS determination according to the method of S3.

[2] = Stability of (7aS,2′S)-2-oxo-clopidogrel in plasma at −80° C., screening of reducing agent type (Example 5); type: in vitro ADME; conditions: for recovery at 0 day, 0.1 ng/mL / recovery at 10 day, 0.1 ng/mL / recovery at 30 day, 0.1 ng/mL / recovery at 60 day, 0.1 ng/mL: theoretical 0.1 ng/mL; for recovery at 0 day, 0.1 ng/mL / recovery at 0 day, 12 ng/mL: day 0, read-out: Recovery rate; for recovery at 10 day, 0.1 ng/mL / recovery at 10 day, 12 ng/mL: day 10, read-out: Recovery rate; for recovery at 30 day, 0.1 ng/mL / recovery at 30 day, 12 ng/mL: day 30, read-out: Recovery rate; for recovery at 60 day, 0.1 ng/mL / recovery at 60 day, 12 ng/mL: day 60, read-out: Recovery rate; for recovery at 0 day, 12 ng/mL / recovery at 10 day, 12 ng/mL / recovery at 30 day, 12 ng/mL / recovery at 60 day, 12 ng/mL: theoretical 12.0 ng/mL
Experimental: as §1, §2, §3
Blank plasma was taken and different antioxidants (DTT, TCEP, ME) were added to prepare plasma containing an antioxidant at a concentration of 100 mg/ml. Subsequently, standard series solution of (7aS,2′S)-2-oxo-clopidogrel was added separately to prepare quality control samples with two concentrations of (7aS,2′S)-2-oxo-clopidogrel (0.1 and 12.0 ng/ml), 3 samples for each concentration. They were placed in a refrigerator at −80° C., and the plasma samples at different placing time points were taken to examine the stability by pre-treating the plasma samples according to the method of S2 of Example 1, followed by LC/MS/MS determination according to the method of S3.

[3] = placing at room temperature for 1 h, theoretical 0.1 ng/mL
[4] = placing at room temperature for 1 h, theoretical 12.0 ng/mL
[5] = placing below −60° C. for 36 days, theoretical 0.1 ng/mL
[6] = placing in ice box for 4 h, theoretical 12.0 ng/mL
[7] = three cycles of freeze-thaw, theoretical 0.1 ng/mL
[8] = three cycles of freeze-thaw, theoretical 12.0 ng/mL
[9] = blank plasma containing DTT 100 mg/ml, DTT 100 mg/ml
[10] = blank plasma containing ME 100 mg/ml, ME 100 mg/ml
[11] = blank plasma containing TCEP 100 mg/ml, TCEP 100 mg/ml

COC(=O)[C@H](c1ccccc1Cl)N1CC[C@@H]2SC(=O)C=C2C1 [(7aS,2′S)-2-oxo-clopidogrel, methyl(S)-2-(2-chlorophenyl)-2-((S)-2-oxo-2,6,7,7a-tetrahydrothieno[3,2-c]pyridin-5 (4H)-yl)acetate]
recovery at 1 h, 0.1 ng/mL ([1]; human, plasma containing the reducing agent (TCEP), placing at room temperature for 1 h, theoretical 0.1 ng/mL, read-out: Recovery rate): 102%
recovery at 1 h, 12 ng/mL ([1]; human, plasma containing the reducing agent (TCEP), placing at room temperature for 1 h, theoretical 12.0 ng/mL, read-out: Recovery rate): 99.4%
recovery at 36 days, 0.1 ng/mL ([1]; human, plasma containing the reducing agent (TCEP), placing below −60° C. for 36 days, theoretical 0.1 ng/mL, read-out: Recovery rate): 96.4%
recovery at 36 days, 12 ng/mL ([1]; human, plasma containing the reducing agent (TCEP), placing below −60° C. for 36 days, theoretical 12.0 ng/mL, read-out: Recovery rate): 97.7%
recovery at 4 h, 0.1 ng/mL ([1]; human, plasma containing the reducing agent (TCEP), placing in ice box for 4 h, theoretical 0.1 ng/mL, read-out: Recovery rate): 100%
recovery at 4 h, 12 ng/mL ([1]; human, plasma containing the reducing agent (TCEP), placing in ice box for 4 h, theoretical 12.0 ng/mL, read-out: Recovery rate): 98.5%
recovery at 0.1 ng/mL ([1]; human, plasma containing the reducing agent (TCEP), three cycles of freeze-thaw, theoretical 0.1 ng/mL, read-out: Recovery rate): 100%
recovery at 12 ng/mL ([1]; human, plasma containing the reducing agent (TCEP), three cycles of freeze-thaw, theoretical 12.0 ng/mL, read-out: Recovery rate): 99.3%
Average measured concentration [1, 3]: 0.1021 ng/mL
Measured concentration [1, 3]: 0.1013 ng/mL and 0.1027 ng/mL and 0.1020 ng/mL and 0.1040 ng/mL and 0.1007 ng/mL
Average measured concentration [1, 4]: 11.9269 ng/mL
Measured concentration [1, 4]: 11.8349 ng/mL and 11.7245 ng/mL and 11.8592 ng/mL and 12.1616 ng/mL and 12.0541 ng/mL
Average measured concentration [1, 5]: 0.0964 ng/mL
Measured concentration [1, 5]: 0.0980 ng/mL and 0.0940 ng/mL
Measured concentration ([1]; placing in ice box for 4 h, theoretical 0.1 ng/mL): 0.1013 ng/mL (2×) and 0.0960 ng/mL
Average measured concentration [1, 6]: 11.8184 ng/mL
Measured concentration [1, 6]: 12.0320 ng/mL and 11.7632 ng/mL and 11.6883 ng/mL and 11.8822 ng/mL and 11.7261 ng/mL
Average measured concentration [1, 7]: 0.1003 ng/mL
Measured concentration [1, 7]: 0.1007 ng/mL (2×) and 0.1013 ng/mL (2×) and 0.0973 ng/mL
Average measured concentration [1, 8]: 11.9191 ng/mL
Measured concentration [1, 8]: 11.9123 ng/mL and 11.8416 ng/mL and 11.9078 ng/mL and 11.8995 ng/mL and 12.0342 ng/mL
recovery at 0 day, 0.1 ng/mL [2, 9]: 102%
recovery at 10 day, 0.1 ng/mL [2, 9]: 103%
recovery at 30 day, 0.1 ng/mL [2, 9]: 95.5%
recovery at 0 day, 0.1 ng/mL [2, 10]: 102%
recovery at 10 day, 0.1 ng/mL [2, 10]: 101%
recovery at 30 day, 0.1 ng/mL [2, 10]: 91.5%
recovery at 60 day, 0.1 ng/mL [2, 10]: 86.6%
recovery at 0 day, 12 ng/mL [2, 10]: 101%
recovery at 10 day, 12 ng/mL [2, 10]: 99.2%
recovery at 30 day, 12 ng/mL [2, 10]: 96.5%
recovery at 60 day, 12 ng/mL [2, 10]: 87.9%
recovery at 60 day, 0.1 ng/mL [2, 11]: 101%
recovery at 0 day, 12 ng/mL [2, 11]: 101%
recovery at 10 day, 12 ng/mL [2, 11]: 100%
recovery at 30 day, 12 ng/mL [2, 11]: 102%
recovery at 60 day, 12 ng/mL [2, 11]: 101%
recovery at 60 day, 0.1 ng/mL ([2]; plasma, DTT 100 mg/ml): 89.9%
recovery at 0 day, 12 ng/mL ([2]; plasma, DTT 100 mg/ml): 101%
recovery at 10 day, 12 ng/mL ([2]; plasma, DTT 100 mg/ml): 100%
recovery at 30 day, 12 ng/mL ([2]; plasma, DTT 100 mg/ml): 98.9%
recovery at 60 day, 12 ng/mL ([2]; plasma, DTT 100 mg/ml): 92.4%
recovery at 0 day, 0.1 ng/mL ([2]; plasma, TCEP 100 mg/ml): 102%
recovery at 10 day, 0.1 ng/mL ([2]; plasma, TCEP 100 mg/ml): 105%
recovery at 30 day, 0.1 ng/mL ([2]; plasma, TCEP 100 mg/ml): 99.3%
Stability of plasma samples (in words) ([2]; with TCEP compared with DTT and ME, 100 mg/ml): better than that of the plasma samples with DTT and ME

Reference: patent US20260140098A1, “METHOD FOR TREATING PLASMA SAMPLE CONTAINING (7aS,2'S)-2-OXO-CLOPIDOGREL AND METHOD FOR DETERMINING THE SAME” (CHENGDU SHIBEIKANG BIOMEDICAL TECHNOLOGY CO., LTD., priority 2021, published 2026)
